Laboratory results as given in the NIST ThermoML archive (doi:10.1016/j.jct.2016.10.006).
± gives the expanded uncertainty stated by the source.

Assays:
[1] = Crystal; DTA
[2] = Molar enthalpy of transition or fusion; details: Crystal; DSC

Normal melting temperature [1]: 148.20 ± 1.1 °C
Molar enthalpy of transition or fusion [2]: 5.36 ± 0.222 kcal/mol
SMILES: Cn1cnc([N+](=O)[O-])c1Cl [5-chloro-1-methyl-4-nitroimidazole]
